Laboratory results reported in US20030232813A1, “Novel amino substituted pyrimidinone derivatives” (ORCHID CHEMICALS & PHARMACEUTICALS LIMITED, priority 2002, published 2003).

Experiments:
IL-6 = IL-6 production from LPS-stimulated human monocytes (ELISA); assay type: cell-based; conditions: Monocyte; for inhibition at 1 µM: Conc. 1 μM
Method: (§1) This assay determines the effect of test compounds on the production of IL-6 from human monocytes. Compounds are tested for their ability to downregulate the production of IL-6 in activated monocytes. Test compounds were incubated for three, six and twenty four hours with human monocytes. Lipopolysaccharide was used to stimulate the monocytes. The level of Interleukin-6 is quantitated using Enzyme-Linked Immunosorbent assay performed in a 96 well format.

COX-2 = target: T1, COX-2 (Homo sapiens, UniProt P35354); assay: Human whole blood assay, COX-2 inhibition (LPS-induced PGE2); assay type: cell-based; conditions: 24 h
T1 construct: Fresh blood was collected in tubes containing potassium EDTA by vein puncture from male volunteers; endogenous in cells; host or cells: fresh human whole blood from male volunteers, aspirin-pretreated, LPS-stimulated for 24 h
T1 sequence (P35354 18-604): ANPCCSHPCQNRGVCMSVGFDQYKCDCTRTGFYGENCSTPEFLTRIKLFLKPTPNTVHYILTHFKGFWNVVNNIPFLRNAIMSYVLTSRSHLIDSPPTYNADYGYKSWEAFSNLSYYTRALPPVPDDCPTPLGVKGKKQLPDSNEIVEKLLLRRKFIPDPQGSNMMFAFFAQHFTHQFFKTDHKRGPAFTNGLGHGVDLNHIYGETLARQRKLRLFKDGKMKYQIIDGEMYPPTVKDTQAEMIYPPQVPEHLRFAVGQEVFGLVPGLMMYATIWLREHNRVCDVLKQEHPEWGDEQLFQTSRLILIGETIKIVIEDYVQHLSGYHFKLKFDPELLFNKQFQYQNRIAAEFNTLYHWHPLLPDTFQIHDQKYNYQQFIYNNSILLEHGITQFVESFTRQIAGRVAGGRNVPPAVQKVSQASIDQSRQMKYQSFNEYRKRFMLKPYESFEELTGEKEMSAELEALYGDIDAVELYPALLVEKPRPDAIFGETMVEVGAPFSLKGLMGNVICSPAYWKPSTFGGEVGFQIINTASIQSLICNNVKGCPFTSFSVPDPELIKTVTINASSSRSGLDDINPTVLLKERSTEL
Method: In vitro Evaluation of Cycloxygenase-2 (COX-2) Inhibition Activity
The COX-2 inhibition activity of the compounds illustrated in the examples was determined by the following method.
Human whole blood provides a protein and cell rich milieu appropriate for the study of biochemical efficacy of anti-inflammatory compounds such as selective COX-2 inhibitors. […] This is correlating with the observation that COX-2 inhibitors have no effect on prostaglandin E2 (PGE2) production in normal blood. These inhibitors are active only after incubation of human blood with lipopolysaccharide (LPS), which induces COX-2 production in the blood.
Fresh blood was collected in tubes containing potassium EDTA by vein puncture from male volunteers. The subjects should have no apparent inflammatory conditions and not taken NSAIDs for atleast 7 days prior to blood collection. Blood was treated with aspirin in vitro (10 μg/ml, at time zero) to inactivate COX-1, and then with LPS (10 μg/ml) along with test agents or vehicle. The blood was incubated for 24 h at 37° C., after which the tubes were centrifuged, the plasma was separated and stored at −80° C. (J Pharmacol Exp Ther 271, 1705, 1994; Proc Natl Acad Sci USA 96, 7563, 1999). The plasma was assayed for PGE2 using Cayman ELISA kit as per the procedure outlined by the manufacturer (Cayman Chemicals, Ann Arbor, USA). […]

Male Wistar rats [1] = assay: Rat carrageenan paw edema test; assay type: in vivo; conditions: oral
Method: Rat Carrageenan Paw Edema Test
The carrageenan paw edema test was performed as described by Winter et al (Proc. Soc. Exp Biol Me., 111, 544, 1962). Male Wistar rats were selected and the body weight were equivalent within each group. The rats were fasted for eighteen hours with free access to water. The rats were dosed orally with the test compound suspended in vehicle containing 0.5% Methycellulose. The control rats were administered the vehicle alone. After one hour the rats were injected with 0.1 ml of 1% Carrageenan solution in 0.9% saline into the sub plantar surface of the right hind paw. Paw thickness was measured using vernier calipers at 0 time, after 2 and 3 hours. The average of foot swelling in drug treated animals was compared with that of control animals. Anti-inflammatory activity was expressed as the percentage inhibition of edema compared with control group [Arzneim-Forsch/Drug Res 43(I), 1, 44-50, 1993; Otterness and Bliven, Laboratory Models for Testing NSAIDs, In Non-Steroidal Anti-Inflammatory Drugs, (J. Lombardino, ed. 1985)]. The data of the selected compounds in this invention are summarized in Table I. In order to evaluate their role on the ulcer formation, the animals were sacrificed by cervical dislocation, the stomach removed and flushed with 1% formalin (10 ml). The stomach was opened along the greater curvature. […]

Male Wistar rats [2] = assay: Gastro-ulcerogenic potential (ulcer formation in the rats of the paw edema test); assay type: in vivo, rat; conditions: oral dosing
Method: The carrageenan paw edema test was performed as described by Winter et al (Proc. Soc. Exp Biol Me., 111, 544, 1962). Male Wistar rats were selected and the body weight were equivalent within each group. The rats were fasted for eighteen hours with free access to water. The rats were dosed orally with the test compound suspended in vehicle containing 0.5% Methycellulose. The control rats were administered the vehicle alone. After one hour the rats were injected with 0.1 ml of 1% Carrageenan solution in 0.9% saline into the sub plantar surface of the right hind paw. Paw thickness was measured using vernier calipers at 0 time, after 2 and 3 hours. The average of foot swelling in drug treated animals was compared with that of control animals. Anti-inflammatory activity was expressed as the percentage inhibition of edema compared with control group [Arzneim-Forsch/Drug Res 43(I), 1, 44-50, 1993; Otterness and Bliven, Laboratory Models for Testing NSAIDs, In Non-Steroidal Anti-Inflammatory Drugs, (J. Lombardino, ed. 1985)]. The data of the selected compounds in this invention are summarized in Table I. In order to evaluate their role on the ulcer formation, the animals were sacrificed by cervical dislocation, the stomach removed and flushed with 1% formalin (10 ml). The stomach was opened along the greater curvature. The haemorrhagic puncta and sulci were identified macroscopically.

TNF-α = TNF-α production from LPS-stimulated human monocytes (ELISA); assay type: cell-based; conditions: Monocyte; for inhibition at 10 µM: Conc. 10 μM
Method: Tumor Necrosis Factor Alpha (TNF-α)
as §1, with “TNF-α” for “IL-6”, “were” for “are”, “TNF-α was” for “Interleukin-6 is”

## Nc1cc(=O)nc(Nc2ccccc2)n1-c1ccccc1 [Example 1, 6-amino-2-phenylamino-1-phenyl-1H-pyrimidin-4-one]
IL-6; Conc. 0.25 μM
  inhibition at 0.25 µM: 46.6%
COX-2; Conc. 10 μM
  inhibition at 10 µM: 75.8%
Male Wistar rats [1]
  Rat Paw Edema model % Inhibition (10 mg/kg body weight): 10%
other
  melting point: 202 to 206 °C
Male Wistar rats [2]
  Gastro-ulcerogenic potential (% incidence of ulceration): 24.6%

## COc1ccc(Nc2nc(=O)cc(N)n2-c2ccccc2)cc1 [Example 2, 6-amino-2-(4-methoxy-phenylamino)-1-phenyl-1H-pyrimidin-4-one]
IL-6
  inhibition at 1 µM: 65.1%
other
  melting point: 213 to 216 °C

## CCOc1ccc(Nc2nc(=O)cc(N)n2-c2ccccc2)cc1 [Example 3, 6-amino-2-(4-ethoxy-phenylamino)-1-phenyl-1H-pyrimidin-4-one]
IL-6
  inhibition at 1 µM: 82.3%
TNF-α; Conc. 1 μM
  inhibition at 1 µM: 58.3%
other
  melting point: 111 to 113 °C

## CSc1ccc(Nc2nc(=O)cc(N)n2-c2ccccc2)cc1 [Example 4, 6-amino-2-(4-methylthio-phenylamino)-1-phenyl-1H-pyrimidin-4-one]
IL-6
  inhibition at 1 µM: 56.7%
TNF-α
  inhibition at 10 µM: 43.5%
other
  melting point: 133 to 135 °C

## Cc1ccc(Nc2nc(=O)cc(N)n2-c2ccccc2)cc1 [Example 5, 6-amino-2-(4methyl-phenylamino)-1-phenyl-1H-pyrimidin-4-one]
other
  melting point: 207 to 210 °C

## Nc1cc(=O)nc(Nc2ccc(Cl)cc2)n1-c1ccccc1 [Example 6, 6-amino-2-(4-chloro-phenylamino)-1-phenyl-1H-pyrimidin-4-one]
IL-6
  inhibition at 1 µM: 44.6%
other
  melting point: 233 to 237 °C

## Nc1cc(=O)nc(Nc2ccc(F)cc2)n1-c1ccccc1 [Example 7, 6-amino-2-(4-fluoro-phenylamino)-1-phenyl-1H-pyrimidin-4-one]
other
  melting point: 225 to 227 °C

## CSc1ccc(Nc2nc(=O)cc(N)n2-c2ccc(C)cc2)cc1 [Example 8, 6-amino-1-(4-methylphenyl)-2-(4-methylthio-phenylamino)-1H-pyrimidin-4-one]
other
  melting point: 231 to 234 °C

## COc1ccc(-n2c(N)cc(=O)nc2Nc2ccccc2)cc1 [Example 9, 6-amino-1-(4-methoxyphenyl)-2-phenylamino-1H-pyrimidin-4-one]
IL-6
  inhibition at 1 µM: 75.4%
TNF-α
  inhibition at 10 µM: 45.2%
other
  melting point: 180 to 190 °C

## CCOc1ccc(-n2c(N)cc(=O)nc2Nc2ccccc2)cc1 [Example 10, 6-amino-1-(4-ethoxyphenyl)-2-phenylamino-1H-pyrimidin-4-one]
COX-2; Conc. 1 μM
  inhibition at 1 µM: 33.3%
other
  melting point: 114 to 118 °C

## Nc1cc(=O)nc(Nc2ccccc2)n1-c1ccc(Cl)cc1 [Example 11, 6-amino-1-(4-chlorophenyl)-2-phenylamino-1H-pyrimidin-4-one]
IL-6
  inhibition at 1 µM: 59.5%
other
  melting point: 216 to 222 °C

## Nc1cc(=O)nc(Nc2ccccc2)n1-c1ccc(Br)cc1 [Example 12, 6-amino-1-(4-bromophenyl)-2-phenylamino-1H-pyrimidin-4-one]
other
  melting point: 211 to 213 °C
